Test system: CFTR+/+ and CFTR−/− mice
Assay: Production of mucus in the airways of mice (alcian blue score), with or without LPS from P. aeruginosa
Assay type: in vivo, mouse
Conditions: for Average Score (production of mucus in the airways): D4
Method: The studies were carried out on a cystic fibrosis model established in C57BL/6J mice (Cftr^tmUNC mice) kept on a mixed gene pool by the “Centre de Distribution, de Typage et d'Archivage Animal” UPS44 CNRS in Orléans. Wild-type CFTR^+/+ and mutant CFTR^−/− mice were weaned at 3-4 weeks and fed with food supplemented with a commercial laxative, Movicol®. Without laxative CFTR^−/− mice die rapidly after weaning due to bowel obstructions resulting from a change in the secretion of fluids in the digestive tract.
The experiments were conducted on groups of at least 5 mice aged 5-7 weeks for each category of treatment.
The products used were dissolved in an injectable saline solution (or physiological saline) and injected by intratracheal (i.t.) or intraperitoneal (i.p.) route.
The use protocol was as follows:
1) Aspirin (50 mg/kg, i.p.), 30 minutes before LPS, then each day, once a day;
2) ATK (20 mg/kg, i.p.), 30 minutes before LPS and 24 hours after.
The mice were anesthetized with 2% xylazine (8 mg/kg) and ketamine 1000 (40 mg/kg) before the infusion of LPS (330 μg/kg, i.t.).
Bronchoalveolar lavages (BALs) and lung samplings were carried out 4 days after the infusion of LPS, as indicated below:
The lungs were infused with 4% formaldehyde to remove the blood and immersed in 4% formaldehyde for 48 hours at 4° C. before being added to paraffin.
Sections 5 μm thick were stained with hemotoxylin/eosin, periodic acid-Schiff (PAS) and alcian blue (AB; pH 2.4) according to standard methods (Histologie Normale et Pathologique. P. GANTER & G. Jolies, Gauthier-Villars).
After microscopic examination of the sections stained with alcian blue, which colours the mucus, the positive bronchi and cells were counted. The “number of positive bronchi/number of positive cells” ratio makes it possible to establish the score which serves to evaluate the results of the mucus production studies (see below).

SMILES: CC(=O)Oc1ccccc1C(=O)O [asp, aspirin]
- Average Score (production of mucus in the airways) (CFTR+/+ mice, LPS 330 μg/kg i.t. + aspirin 50 mg/kg i.p.): 0
- Average Score (production of mucus in the airways) (CFTR+/+ mice, control (physiological saline, no LPS) + aspirin 50 mg/kg i.p.): 0.25
- secretion of mucus (CFTR−/− mice stimulated by infusion with LPS of Pseudomonas aeruginosa): inhibited
- Average Score (production of mucus in the airways) (CFTR−/− mice, LPS 330 μg/kg i.t. + aspirin 50 mg/kg i.p.): 0
- Average Score (production of mucus in the airways) (CFTR−/− mice, control (physiological saline, no LPS) + aspirin 50 mg/kg i.p.): 0.50
